# Assay results as given in US20030050192A1, “Herbicidal composition” (priority 1998, published 2003).
# Where “and” joins values, the source holds several entries; their conditions need not be identical. Identical values can stand only once.
# Columns and labels:
# Assay type in all cases: in vivo
# Conditions in all cases: ten days after application
# Wheat = test: Example B1: post-emergent application of herbicide of formula I with/without safener, greenhouse, wheat
# Procedure: Post-emergent Applications of Mixtures of a Herbicide of Formula I with a Safener of Formulae IIa to IIq to Cereals
# (§1) Under greenhouse conditions, wheat is grown in plastic pots to the 2.5-leaf stage. In this stage, both the herbicide of formula I alone and the mixture of the herbicide with a safener of formulae IIa to IIq are applied to the test plants. The test substances (Formulation Examples F3 a) and b)) are applied as aqueous suspension with 500 l water/ha. Ten days after the application, the results are evaluated on a percent scale.
# Chenopodium [1] = test: Example B1: post-emergent application of herbicide of formula I with/without safener, greenhouse, Chenopodium
# Emex [2] = test: Example B1: post-emergent application of herbicide of formula I with/without safener, greenhouse, Emex
# Raphanus [3] = test: Example B1: post-emergent application of herbicide of formula I with/without safener, greenhouse, Raphanus
# Setaria [4] = test: Example B1: post-emergent application of herbicide of formula I with/without safener, greenhouse, Setaria
# Barley = test: Example B2: post-emergent application of herbicide of formula I with/without safener, greenhouse, barley
# Procedure: Post-emergent Applications of Mixtures of a Herbicide of Formula I with a Safener of Formulae IIa to IIq to barley
# as §1, with “barley” for “wheat”
# Chenopodium [5] = test: Example B2: post-emergent application of herbicide of formula I with/without safener, greenhouse, Chenopodium
# Emex [6] = test: Example B2: post-emergent application of herbicide of formula I with/without safener, greenhouse, Emex
# Raphanus [7] = test: Example B2: post-emergent application of herbicide of formula I with/without safener, greenhouse, Raphanus
# Setaria [8] = test: Example B2: post-emergent application of herbicide of formula I with/without safener, greenhouse, Setaria
# Durum wheat = test: Example B3: post-emergent application of herbicide of formula I with/without safener, greenhouse, durum wheat
# Procedure: Post-emergent Applications of Mixtures of a Herbicide of Formula I with a Safener of Formulae IIa to IIq to Durum Wheat.
# as §1, with “conditions, durum” for “conditions,”
# Chenopodium [9] = test: Example B3: post-emergent application of herbicide of formula I with/without safener, greenhouse, Chenopodium
# Emex [10] = test: Example B3: post-emergent application of herbicide of formula I with/without safener, greenhouse, Emex
# Raphanus [11] = test: Example B3: post-emergent application of herbicide of formula I with/without safener, greenhouse, Raphanus
# Setaria [12] = test: Example B3: post-emergent application of herbicide of formula I with/without safener, greenhouse, Setaria
# [13] = Herbicide of formula 1 alone 15 g/ha
# [14] = Herbicide of formula 1 alone 60 g/ha
# [15] = Herbicide of formula 1 alone 250 g/ha
# [16] = Herbicide of formula 1 15 g/ha + safener 4 g/ha
# [17] = Herbicide of formula 1 60 g/ha + safener 15 g/ha
# [18] = Herbicide of formula 1 250 g/ha + safener 60 g/ha
structure (smiles),measurement,setting,value
COc1nn(C(=O)NS(=O)(=O)c2ccccc2OC(F)(F)F)c(=O)n1C [Herbicide of formula 1],"damage to Wheat, percent scale",Wheat; [13],10%
same,"damage to Wheat, percent scale",Wheat; [14],20%
same,"herbicidal effect on Chenopodium, percent scale",Chenopodium [1]; [13],90% and 80%
same,"herbicidal effect on Chenopodium, percent scale",Chenopodium [1]; [14],90%
same,"herbicidal effect on Emex, percent scale",Emex [2]; [13],80%
same,"herbicidal effect on Emex, percent scale",Emex [2]; [14],90%
same,"herbicidal effect on Raphanus, percent scale",Raphanus [3]; [13],80%
same,"herbicidal effect on Raphanus, percent scale",Raphanus [3]; [14],80%
same,"herbicidal effect on Setaria, percent scale",Setaria [4]; [13],70%
same,"herbicidal effect on Setaria, percent scale",Setaria [4]; [14],80%
same,"damage to Barley, percent scale",Barley; [13],30%
same,"damage to Barley, percent scale",Barley; [14],40%
same,"herbicidal effect on Chenopodium, percent scale",Chenopodium [5]; [13],90%
same,"herbicidal effect on Chenopodium, percent scale",Chenopodium [5]; [14],90%
same,"herbicidal effect on Emex, percent scale",Emex [6]; [13],80%
same,"herbicidal effect on Emex, percent scale",Emex [6]; [14],90%
same,"herbicidal effect on Raphanus, percent scale",Raphanus [7]; [13],80%
same,"herbicidal effect on Raphanus, percent scale",Raphanus [7]; [14],80%
same,"herbicidal effect on Setaria, percent scale",Setaria [8]; [13],70%
same,"herbicidal effect on Setaria, percent scale",Setaria [8]; [14],80%
same,"damage to Durum wheat, percent scale",Durum wheat; [15],30%
same,"herbicidal effect on Chenopodium, percent scale",Chenopodium [9]; [15],90%
same,"herbicidal effect on Emex, percent scale",Emex [10]; [15],90%
same,"herbicidal effect on Raphanus, percent scale",Raphanus [11]; [15],90%
same,"herbicidal effect on Setaria, percent scale",Setaria [12]; [15],80%
"CCCCCC(C)OC(=O)COc1ccc(Cl)c2cccnc12 (stereo not shown) [Safener no. 1,01]","damage to Wheat, percent scale",Wheat; [16],5%
same,"herbicidal effect on Chenopodium, percent scale",Chenopodium [1]; [16],90%
same,"herbicidal effect on Emex, percent scale",Emex [2]; [16],90%
same,"herbicidal effect on Raphanus, percent scale",Raphanus [3]; [16],80%
same,"herbicidal effect on Setaria, percent scale",Setaria [4]; [16],70%
"COC(=O)c1cc(-c2ccccc2)n(-c2ccccc2Cl)n1 [Safener no. 2,01]","damage to Barley, percent scale",Barley; [16],0%
same,"damage to Barley, percent scale",Barley; [17],10%
same,"herbicidal effect on Chenopodium, percent scale",Chenopodium [5]; [16],90%
same,"herbicidal effect on Chenopodium, percent scale",Chenopodium [5]; [17],90%
same,"herbicidal effect on Emex, percent scale",Emex [6]; [16],90%
same,"herbicidal effect on Emex, percent scale",Emex [6]; [17],90%
same,"herbicidal effect on Raphanus, percent scale",Raphanus [7]; [16],80%
same,"herbicidal effect on Raphanus, percent scale",Raphanus [7]; [17],80%
same,"herbicidal effect on Setaria, percent scale",Setaria [8]; [16],70%
same,"herbicidal effect on Setaria, percent scale",Setaria [8]; [17],70%
same,"damage to Durum wheat, percent scale",Durum wheat; [18],10%
same,"herbicidal effect on Chenopodium, percent scale",Chenopodium [9]; [18],95%
same,"herbicidal effect on Emex, percent scale",Emex [10]; [18],90%
same,"herbicidal effect on Raphanus, percent scale",Raphanus [11]; [18],80%
same,"herbicidal effect on Setaria, percent scale",Setaria [12]; [18],80%
"CCOC(=O)c1nc(C(Cl)(Cl)Cl)n(-c2ccc(Cl)cc2Cl)n1 [Safener no. 2,05]","damage to Barley, percent scale",Barley; [17],30%
same,"herbicidal effect on Chenopodium, percent scale",Chenopodium [5]; [17],90%
same,"herbicidal effect on Emex, percent scale",Emex [6]; [17],90%
same,"herbicidal effect on Raphanus, percent scale",Raphanus [7]; [17],90%
same,"herbicidal effect on Setaria, percent scale",Setaria [8]; [17],80%
"CCOC(=O)C1=NN(c2ccc(Cl)cc2Cl)C(C)(C(=O)OCC)C1 (stereo not shown) [Safener no. 3,03]","damage to Wheat, percent scale",Wheat; [16],5%
same,"herbicidal effect on Chenopodium, percent scale",Chenopodium [1]; [16],90%
same,"herbicidal effect on Emex, percent scale",Emex [2]; [16],90%
same,"herbicidal effect on Raphanus, percent scale",Raphanus [3]; [16],80%
same,"herbicidal effect on Setaria, percent scale",Setaria [4]; [16],70%
same,"damage to Barley, percent scale",Barley; [17],30%
same,"herbicidal effect on Chenopodium, percent scale",Chenopodium [5]; [17],80%
same,"herbicidal effect on Emex, percent scale",Emex [6]; [17],90%
same,"herbicidal effect on Raphanus, percent scale",Raphanus [7]; [17],80%
same,"herbicidal effect on Setaria, percent scale",Setaria [8]; [17],80%
FC(F)(F)C(=NOCC1OCCO1)c1ccc(Cl)cc1 [Safener no. 6.02],"damage to Wheat, percent scale",Wheat; [17],10%
same,"herbicidal effect on Chenopodium, percent scale",Chenopodium [1]; [17],80%
same,"herbicidal effect on Emex, percent scale",Emex [2]; [17],90%
same,"herbicidal effect on Raphanus, percent scale",Raphanus [3]; [17],80%
same,"herbicidal effect on Setaria, percent scale",Setaria [4]; [17],80%
same,"damage to Barley, percent scale",Barley; [17],30%
same,"herbicidal effect on Chenopodium, percent scale",Chenopodium [5]; [17],80%
same,"herbicidal effect on Emex, percent scale",Emex [6]; [17],90%
same,"herbicidal effect on Raphanus, percent scale",Raphanus [7]; [17],80%
same,"herbicidal effect on Setaria, percent scale",Setaria [8]; [17],80%
